Laboratory results as given in PubChem BioAssay (NCI).
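Growth conditions: 96-well plates. Treatment: test compound, 48 hours, 5 concentrations. Analysis: linear interpolation between bracketing concentrations; unreached endpoints set to highest concentration. GI50 marks 50% less growth. TGI: total growth inhibition.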

Experiments:
Experiment in all cases: DTP human tumour cell line panel, 48 h
[1] = system: 786-0 renal
[2] = system: A498 renal
[3] = system: A549 NSCLC
[4] = system: ACHN renal
[5] = system: BT-549 breast
[6] = system: CAKI-1 renal
[7] = system: CCRF-CEM leukemia
[8] = system: COLO 205 colon
[9] = system: DU-145 prostate
[10] = system: EKVX NSCLC
[11] = system: HCC-2998 colon
[12] = system: HCT-116 colon
[13] = system: HCT-15 colon
[14] = system: HL-60(TB) leukemia
[15] = system: HOP-62 NSCLC
[16] = system: HOP-92 NSCLC
[17] = system: HS 578T breast
[18] = system: IGROV1 ovarian
[19] = system: K-562 leukemia
[20] = system: KM12 colon
[21] = system: LOX IMVI melanoma
[22] = system: M14 melanoma
[23] = system: MALME-3M melanoma
[24] = system: MCF7 breast
[25] = system: MDA-MB-231 breast
[26] = system: MDA-MB-435
[27] = system: NCI-H226 lung
[28] = system: NCI-H23 lung
[29] = system: NCI-H460 lung
[30] = system: NCI-H522 lung
[31] = system: NCI/ADR-RES ovarian
[32] = system: OVCAR-3 ovarian
[33] = system: OVCAR-5 ovarian
[34] = system: OVCAR-8 ovarian
[35] = system: PC-3 prostate
[36] = system: RPMI-8226 leukemia
[37] = system: RXF 393 renal
[38] = system: SF-268 CNS
[39] = system: SF-295 CNS
[40] = system: SF-539 CNS
[41] = system: SK-MEL-2 melanoma
[42] = system: SK-MEL-5 melanoma
[43] = system: SK-OV-3 ovarian
[44] = system: SN12C renal
[45] = system: SNB-19 CNS
[46] = system: SW-620 colon
[47] = system: T-47D breast
[48] = system: TK-10 renal
[49] = system: U251 CNS
[50] = system: UACC-257 melanoma
[51] = system: UACC-62 melanoma
[52] = system: UO-31 renal

With `O=C(OC(CNc1c(C(=O)c2ccccc2)c(=O)n(Cc2ccccc2)c(=O)n1Cc1ccccc1)CN1CCOCC1)c1ccccc1` (centres undefined) the GI50 [1] was 70.4 µM, the TGI [1] was > 100 µM and the GI50 [2] was 37.4 µM. The TGI [2] was > 100 µM, the GI50 [3] was 49.3 µM and the TGI [3] was > 100 µM. For the same compound, the GI50 [4] was 46.8 µM, the TGI [4] was > 100 µM and the GI50 [5] was 41.3 µM. For the same compound, the TGI [5] was > 100 µM, the GI50 [6] was 34.7 µM and the TGI [6] was > 100 µM. For the same compound, the GI50 [7] was 33.9 µM, the TGI [7] was > 100 µM and the GI50 [8] was 46.3 µM. The TGI [8] was > 100 µM, the GI50 [9] was > 100 µM and the TGI [9] was > 100 µM. For the same compound, the GI50 [10] was 52.9 µM, the TGI [10] was > 100 µM and the GI50 [11] was 47.4 µM. For the same compound, the TGI [11] was > 100 µM, the GI50 [12] was 41.1 µM and the TGI [12] was > 100 µM. For the same compound, the GI50 [13] was 38.5 µM, the TGI [13] was > 100 µM and the GI50 [14] was 30.9 µM. The TGI [14] was > 100 µM, the GI50 [15] was 55.5 µM and the TGI [15] was > 100 µM. The GI50 [16] was 29.6 µM, the TGI [16] was > 100 µM and the GI50 [17] was 40.2 µM. The TGI [17] was > 100 µM, the GI50 [18] was 65.2 µM and the TGI [18] was > 100 µM. For the same compound, the GI50 [19] was 32.3 µM, the TGI [19] was > 100 µM and the GI50 [20] was 42.1 µM. For the same compound, the TGI [20] was > 100 µM, the GI50 [21] was 59 µM and the TGI [21] was > 100 µM. For the same compound, the GI50 [22] was 38.4 µM, the TGI [22] was > 100 µM and the GI50 [23] was > 100 µM. For the same compound, the TGI [23] was > 100 µM, the GI50 [24] was 48.1 µM and the TGI [24] was > 100 µM. For the same compound, the GI50 [25] was 42.8 µM, the TGI [25] was > 100 µM and the GI50 [26] was 86.7 µM. For the same compound, the TGI [26] was > 100 µM, the GI50 [27] was 49.9 µM and the TGI [27] was > 100 µM. The GI50 [28] was 43.2 µM, the TGI [28] was > 100 µM and the GI50 [29] was 46.2 µM. The TGI [29] was > 100 µM, the GI50 [30] was 47.2 µM and the TGI [30] was > 100 µM. The GI50 [31] was 47.7 µM, the TGI [31] was > 100 µM and the GI50 [32] was 34.1 µM. The TGI [32] was > 100 µM, the GI50 [33] was > 100 µM and the TGI [33] was > 100 µM. The GI50 [34] was 64.7 µM, the TGI [34] was > 100 µM and the GI50 [35] was 38.6 µM. The TGI [35] was > 100 µM, the GI50 [36] was 26.8 µM and the TGI [36] was 82.8 µM. For the same compound, the GI50 [37] was 34.7 µM, the TGI [37] was > 100 µM and the GI50 [38] was > 100 µM. For the same compound, the TGI [38] was > 100 µM, the GI50 [39] was 41.6 µM and the TGI [39] was > 100 µM. The GI50 [40] was 91.8 µM, the TGI [40] was > 100 µM and the GI50 [41] was 56.7 µM. For the same compound, the TGI [41] was > 100 µM, the GI50 [42] was 37.7 µM and the TGI [42] was > 100 µM. For the same compound, the GI50 [43] was > 100 µM, the TGI [43] was > 100 µM and the GI50 [44] was 50.7 µM. For the same compound, the TGI [44] was > 100 µM, the GI50 [45] was 71.3 µM and the TGI [45] was > 100 µM. The GI50 [46] was 76.4 µM, the TGI [46] was > 100 µM and the GI50 [47] was > 100 µM. For the same compound, the TGI [47] was > 100 µM, the GI50 [48] was 69 µM and the TGI [48] was > 100 µM. The GI50 [49] was 42.3 µM, the TGI [49] was > 100 µM and the GI50 [50] was 76.8 µM. The TGI [50] was > 100 µM, the GI50 [51] was 38.8 µM and the TGI [51] was > 100 µM. For the same compound, the GI50 [52] was 52.8 µM and the TGI [52] was > 100 µM.
